Columns and labels:
BRD4(BD1) = BRD4(BD1) (Homo sapiens (Human), UniProt O60885); assay: BRD4(BD1) biochemical binding assay (HTRF); conditions: biotinylated H4 derived acetylated peptide
Protocol: 1. BRD4(BD1) Binding Assays
The BRD4(BD1) biochemical binding assay was performed by Sundia MediTech Co. Ltd. in 384-well white plate (OptiPlate-384, PerkinElmer) using HTRF technology.
Briefly, 20 nL of compounds were transferred to the 384-well plate by Echo® 550 liquid handler (Labcyte, USA), then 5 μL of BRD4(BD1) (Reaction Biology Company, RD-11-157) solution or the assay buffer was added to each well. After incubating at RT for 15 min, 5 μL of the biotinylated H4 derived acetylated peptide (synthesized by GL Biochem (Shanghai) Ltd) and 10 μL of the detection solution (Cisbio Assay) were added to each well. After incubating for 1 h at RT, the HTRF signal was measure at 615 nm and 665 nm using the EnVision Multilabel Plate Reader (PerkinElmer, USA). Results were analyzed with a two-wavelength signal ratio: intensity (665 nm)/intensity (615 nm). The inhibition percentage in the presence of the compound was calculated according to the equation, Percent inhibition=(Max−Signal)/(Max−Min)*100%. Fit the data in GraphPad Prism V5.0 software (San Diego, Calif.) to obtain IC50 values with nonlinear regression analysis using equation, Y=Bottom+(Top−Bottom)/(1+10^((Log IC50−X)×HillSlope), where Y stands for inhibition percentage and X stands for compound concentration.

MV-4-11 cells = assay: MV-4-11 cell proliferation assay (MTS); format: cell-based; conditions: Homo sapiens, MV4-11, 72 h, 3 days culture
Protocol: 2. Cell Proliferation Assay
MV-4-11 cell proliferation analysis was conducted by the MIS (3-(4,5-dimethylthiazol-2-yl)-5-(3-carboxymethoxyphenyl)-2-(4-sulfophenyl)-2H-tetrazolium, inner salt) assay. Briefly, MV-4-11 cells will be cultured in IMDM (Iscove's Modified Dubecco's Medium) medium supplemented with 10% (v/v) FBS (fetal bovine serum), under the temperature of 37° C., […] and 95% humidity. The cells will be harvested respectively during the logarithmic growth period and counted with hemocytometer. The cell viability is over […] by trypan blue exclusion. Adjust MV-4-11 cells concentrations to 1.2×10^5 cells/mL with complete medium. Add 100 μL cell suspensions to 96-well plates (triplicates for each cell concentration), the final cell densities are 1.2×10^4 cells/well. The next day, dissolve the test compound with DMSO as stock solution. Dispense 5 μL of the stock solution in 1 mL culture media and add 25 μL drug media into 96-well plates. After serially diluting with culture media, the final concentration of the compound will be 0, 0.03, 0.1, 0.3, 1, 3, 10, 30, 100 nM. The plates will be cultured for 3 days, then measured by means of MTS assay. Add PMS (phenazinium methosulfate) solution to MITS solution (1:20) immediately before addition to the culture plate containing cells. Pipet 20 μL of the combined MTS/PMS Solution into each well of the 96 well assay plate containing 100 μL of cells in culture medium. Incubate the plate for 1-4 hours at 37° C. in a humidified, 5% CO2 atmosphere. Record the absorbance at 490 nm using a microplate spectrophotometer (Envision®, PeikinElmer). Fit the data using GraphPad 5.0 and obtain IC50 values.

Row | SMILES | IC50 (BRD4(BD1)) [nM] | IC50 (MV-4-11 cells) [nM]
1 | Cc1cc(F)cc(C)c1C(C)n1c2cc(-c3c(C)nnn3C)cnc2c2c1c(C(C)(C)O)nn2C (centres unmarked) [Compound 27, 2-(6-(1,4-Dimethyl-1H-1,2,3-triazol-5-yl)-4-(1-(4-fluoro-2,6-dimethylphenyl)ethyl)-1-methyl-1,4-dihydropyrazolo[3′,4′:4,5]pyrrolo[3,2-b]pyridin-3-yl)propan-2-ol] | 17 | 
2 | Cc1noc(C)c1-c1cnc2c3c(c(C(C)(C)O)nn3C)n([C@H](c3ncccc3F)C3CCOCC3)c2c1 [Compound 2, (S)-2-(6-(3,5-dimethylisoxazol-4-yl)-4-((3-fluoropyridin-2-yl)(tetrahydro-2H-pyran-4-yl)methyl)-1-methyl-1,4-dihydropyrazolo[3′,4′:4,5]pyrrolo[3,2-b]pyridin-3-yl)propan-2-ol] | 0.35 | 0.72
3 | Cc1nnn(C)c1-c1cnc2c3c(c(C(N)=O)nn3C)n(C(c3ncccc3F)C3CCOCC3)c2c1 (centres unmarked) [Compound 21, 6-(1,4-Dimethyl-1H-1,2,3-triazol-5-yl)-4-((3-fluoropyridin-2-yl)(tetrahydro-2H-pyran-4-yl)methyl)-1-methyl-1,4-dihydropyrazolo[3′,4′:4,5]pyrrolo[3,2-b]pyridine-3-carboxamide] |  | 0.77
4 | Cc1nnn(C)c1-c1cnc2c3c(c(CN4CCOCC4)nn3C)n(C(c3ccccc3)C3CCOCC3)c2c1 (centres unmarked) [Compound 34, 4-((6-(1,4-dimethyl-1H-1,2,3-triazol-5-yl)-1-methyl-4-(phenyl(tetrahydro-2H-pyran-4-yl)methyl)-1,4-dihydropyrazolo[3′,4′:4,5]pyrrolo[3,2-b]pyridin-3-yl)methyl)morpholine] | 0.34 | 2.16
5 | CC(=O)Nc1nn(C)c2c3ncc(-c4c(C)nnn4C)cc3n([C@H](c3ccccc3)C3CCOCC3)c12 [Compound 29, (S)—N-(6-(1,4-dimethyl-1H-1,2,3-triazol-5-yl)-1-methyl-4-(phenyl(tetrahydro-2H-pyran-4-yl)methyl)-1,4-dihydropyrazolo[3′,4′:4,5]pyrrolo[3,2-b]pyridin-3-yl)acetamide] | 1.9 | 24.7
6 | COc1cccnc1C(C1CCOCC1)n1c2cc(-c3c(C)nnn3C)cnc2c2c1c(C(C)(C)O)nn2C (centres unmarked) [Compound 26, 2-(6-(1,4-Dimethyl-1H-1,2,3-triazol-5-yl)-4-((3-methoxypyridin-2-yl)(tetrahydro-2H-pyran-4-yl)methyl)-1-methyl-1,4-dihydropyrazolo[3′,4′:4,5]pyrrolo[3,2-b]pyridin-3-yl)propan-2-ol] | 0.68 | 0.91
7 | Cc1cccnc1C(CCC(F)(F)F)n1c2cc(-c3c(C)nnn3C)cnc2c2c1c(C(C)(C)O)nn2C (centres unmarked) [Compound 11, 2-(6-(1,4-dimethyl-1H-1,2,3-triazol-5-yl)-1-methyl-4-(4,4,4-trifluoro-1-(3-methylpyridin-2-yl)butyl)-1,4-dihydropyrazolo[3′,4′:4,5]pyrrolo[3,2-b]pyridin-3-yl)propan-2-ol] | 1.3 | 7.66
8 | COC(=O)c1nn(C)c2c3ncc(-c4c(C)nnn4C)cc3n([C@H](c3ncccc3F)C3CCOCC3)c12 [Compound 7-2, (S)-Methyl 6-(1,4-dimethyl-1H-1,2,3-triazol-5-yl)-4-((3-fluoropyridin-2-yl)(tetrahydro-2H-pyran-4-yl)methyl)-1-methyl-1,4-dihydropyrazolo[3′,4′:4,5]pyrrolo[3,2-b]pyridine-3-carboxylate] |  | 1.11
9 | CCC(O)(CC)c1nn(C)c2c3ncc(-c4c(C)nnn4C)cc3n(C(c3ccccc3)C3CCOCC3)c12 (centres unmarked) [Compound 19, 3-(6-(1,4-Dimethyl-1H-1,2,3-triazol-5-yl)-1-methyl-4-(phenyl(tetrahydro-2H-pyran-4-yl)methyl)-1,4-dihydropyrazolo[3′,4′:4,5]pyrrolo[3,2-b]pyridin-3-yl)pentan-3-ol] | 0.79 | 7.17
10 | Cc1nnn(C)c1-c1cnc2c3[nH]nc(C(C)(C)O)c3n([C@H](c3ncccc3F)C3CCOCC3)c2c1 [Compound 13, (S)-2-(6-(1,4-Dimethyl-1H-1,2,3-triazol-5-yl)-4-((3-fluoropyridin-2-yl)(tetrahydro-2H-pyran-4-yl)methyl)-1,4-dihydropyrazolo[3′,4′:4,5]pyrrolo[3,2-b]pyridin-3-yl)propan-2-ol] | 0.4 | 1.15
11 | Cc1cccnc1C(C1CCOCC1)n1c2cc(-c3c(C)nnn3C)cnc2c2c1c(C(C)(C)O)nn2C (centres unmarked) [Compound 5, 2-(6-(1,4-Dimethyl-1H-1,2,3-triazol-5-yl)-1-methyl-4-((3-methylpyridin-2-yl)(tetrahydro-2H-pyran-4-yl)methyl)-1,4-dihydropyrazolo[3′,4′:4,5]pyrrolo[3,2-b]pyridin-3-yl)propan-2-ol] | 0.59 | 1.24
12 | Cc1noc(C)c1-c1cnc2c3c(c(C(C)(C)O)nn3C)n([C@H](c3ccccc3)C3CCOCC3)c2c1 [Compound 1, (S)-2-(6-(3,5-dimethylisoxazol-4-yl)-1-methyl-4-(phenyl(tetrahydro-2H-pyran-4-yl)methyl)-1,4-dihydropyrazolo[3′,4′:4,5]pyrrolo[3,2-b]pyridin-3-yl)propan-2-ol] | 0.48 | 0.89
13 | Cc1cccnc1C(C1CCOCC1)n1c2cc(-c3c(C)noc3C)cnc2c2c1c(C(C)(C)O)nn2C (centres unmarked) [Compound 8, 2-(6-(3,5-dimethylisoxazol-4-yl)-1-methyl-4-((3-methylpyridin-2-yl)(tetrahydro-2H-pyran-4-yl)methyl)-1,4-dihydropyrazolo[3′,4′:4,5]pyrrolo[3,2-b]pyridin-3-yl)propan-2-ol] | 12 | 31.6
14 | COc1ccncc1C(C1CCOCC1)n1c2cc(-c3c(C)nnn3C)cnc2c2c1c(C(C)(C)O)nn2C (centres unmarked) [Compound 25, 2-(6-(1,4-dimethyl-1H-1,2,3-triazol-5-yl)-4-((4-methoxypyridin-3-yl)(tetrahydro-2H-pyran-4-yl)methyl)-1-methyl-1,4-dihydropyrazolo[3′,4′:4,5]pyrrolo[3,2-b]pyridin-3-yl)propan-2-ol] |  | 8.25
15 | Cc1nnn(C)c1-c1cnc2c3c(c(NS(C)(=O)=O)nn3C)n([C@H](c3ccccc3)C3CCOCC3)c2c1 [Compound 28, (S)—N-(6-(1,4-dimethyl-1H-1,2,3-triazol-5-yl)-1-methyl-4-(phenyl(tetrahydro-2H-pyran-4-yl)methyl)-1,4-dihydropyrazolo[3′,4′:4,5]pyrrolo[3,2-b]pyridin-3-yl)methanesulfonamide] |  | 10.5
16 | Cc1nnn(C)c1-c1cnc2c3c(c(CS(C)(=O)=O)nn3C)n(C(c3ccccc3)C3CCOCC3)c2c1 (centres unmarked) [Compound 33, 6-(1,4-dimethyl-1H-1,2,3-triazol-5-yl)-1-methyl-3-((methylsulfonyl)methyl)-4-(phenyl(tetrahydro-2H-pyran-4-yl)methyl)-1,4-dihydropyrazolo[3′,4′:4,5]pyrrolo[3,2-b]pyridine] | 4.67 | 
17 | Cc1nnn(C)c1-c1cnc2c3c(c(C(C)(C)O)nn3C)n([C@@H](c3ncccc3F)C3CCOCC3)c2c1 [Compound 30, (R)-2-(6-(1,4-dimethyl-1H-1,2,3-triazol-5-yl)-4-((3-fluoropyridin-2-yl)(tetrahydro-2H-pyran-4-yl)methyl)-1-methyl-1,4-dihydropyrazolo[3′,4′:4,5]pyrrolo[3,2-b]pyridin-3-yl)propan-2-ol] | 3 | 
18 | Cc1noc(C)c1-c1cnc2c3c(c(C(C)(C)O)nn3C)n([C@@H](c3ncccc3F)C3CCOCC3)c2c1 [Compound 31, (R)-2-(6-(3,5-dimethylisoxazol-4-yl)-4-((3-fluoropyridin-2-yl)(tetrahydro-2H-pyran-4-yl)methyl)-1-methyl-1,4-dihydropyrazolo[3′,4′:4,5]pyrrolo[3,2-b]pyridin-3-yl)propan-2-ol] | 4.6 | 
19 | CC(=O)N(c1nn(C)c2c3ncc(-c4c(C)nnn4C)cc3n(C(c3ccccc3)C3CCOCC3)c12)S(C)(=O)=O (centres unmarked) [Compound 35, N-(6-(1,4-dimethyl-1H-1,2,3-triazol-5-yl)-1-methyl-4-(phenyl(tetrahydro-2H-pyran-4-yl)methyl)-1,4-dihydropyrazolo[3′,4′:4,5]pyrrolo[3,2-b]pyridin-3-yl)-N-(methylsulfonyl)acetamide] |  | 15.5

Reference: patent US11466005B2, “Tricyclic compounds” (JACOBIO PHARMACEUTICALS CO., LTD., priority 2018, dated 2022)
